From patent publication US7393951B2, “Antisense oligonucleotide having anticancerous activity” (Good Will Okinawa Co., Ltd., priority 2004, dated 2008)

What was measured:
[1] = Toxicity in mice after intravenous administration (body weight, symptoms); type: in vivo; settings: female mice, 20 μg per g of the body weight
Procedure: The toxicity of the oligo 3 was examined. Specifically, the oligo 3 was dissolved in a physiological saline so as to have a concentration of 1 mg/mL and administered intravenously into female mice (5-week-old) in a dose of 20 μg per g of the body weight. On the day of administration (Day 0) and 2, 5, 10, 12 and 14 days after the administration, the weight of each mouse was determined.
FIG. 6 is a graph showing the influence of the oligo 3 on increase of the body weight of the mouse in the case of intravenous administration in a dose of 20 μg/(body weight) g. In the graph, each datum is shown in mean±SE. Here, the data were obtained by using 7 mice for the oligo 3 and 6 mice for the control, respectively.

[2] = test system: HeLa cells; test: Influence on DNA synthesis of cells, incorporation of [3H]-methylthymidine; type: cell-based, human; settings: for incorporation ratio of [3H]-methylthymidine into the human cancer cells to the control: HeLa, 0.1% FCS, 24 hours
Procedure: The influence of each oligo on DNA synthesis of cells was examined by observing the incorporation of [^3H]-methylthymidine into cells. Specifically, the cells were cultured for 24 hours in the same manner as described above, and then the culture solution was exchanged with a culture solution containing each oligo at a concentration of 5, 10 or 20 μM and 0.1% FCS. After 18 hours, 1 μCi/mL [^3H]-methylthymidine was added to the culture solution, and the cells were cultured for another 6 hours. After culture, the specific radioactivity of the cells after predetermined treatment was determined with a liquid scintillation counter.

[3] = test system: HeLa cells; test: Influence on growth of HeLa human cancer cells, modified MTT method (WST-1 + 1-methoxy PMS); type: cell-based
Procedure: The influence of each oligo on cell growth was examined. Specifically, HeLa cells, which are human cancer cells in a DMEM medium containing 10% heat-inactivated fetal calf serum (FCS), were seeded at a density of 1500 cells/well in a 96-well plate. After culture for 24 hours, the culture solution was exchanged with a culture solution containing each oligo at a concentration of 10 μM and 1% FCS. The cells were cultured at 37° C. in the presence of CO2. Thereafter, the ratio of living cells [survival ratio of cells (%)] was examined over 4 days at 24-hour intervals (absorbance: 450 to 650 nm) by a modified MTT method (WST-1+1-methoxy PMS) using a cell counting kit (manufactured by DOJINDO). Here, a culture solution exchanged with a culture solution not containing any oligo was used as a control (this applies hereinafter).
Then, an experiment was conducted in a similar manner, setting the concentration of the oligo 3 in the culture solutions at 2.5, 5, 10 and 20 μM respectively, to examine the relationship between the inhibition of growth of human cancer cells and the concentration.

[4] = test system: HeLa cells; test: Induction of cell death of human cancer cells, microscopy and Giemsa staining; type: cell-based; settings: 20 μM
Procedure: Further, the induction of cell death of the human cancer cells by the oligo 3 was examined. Specifically, 3,000 HeLa cells were seeded in a slide chamber. After culture for 24 hours, the culture solution was exchanged with a culture solution containing the oligo 3 at a concentration of 20 μM. […] Furthermore, 24 hours after addition of the oligo 3, the cells were washed with phosphate buffered saline (PBS) and then subjected to Giemsa staining to determine the numbers of living cells and dead cells, and the survival ratio of the cells (%) was determined from the obtained numbers of the cells. Here, the oligo 5 was used additionally as a control.

oligo 3: phosphorothioate antisense DNA oligonucleotide CCTCA, to positions 47-51 of 7SL RNA of SRP (SEQ ID NO: 1) (DNA, all phosphorothioate, methylation of C not given here)
generation of symptoms versus control [1]: not recognized
toxicity [1]: does not exhibit toxicity particularly
influence on increase of the body weight versus control ([1]; Day 0 to 14): no difference between the oligo 3 and the control
incorporation of [3H]-methylthymidine into the cells, compared among oligos 1 to 5 ([2]; HeLa, 5, 10 or 20 μM): suppressed to the lowest level
incorporation ratio of [3H]-methylthymidine into the human cancer cells to the control ([2]; oligo 5 μM): 57.5%
incorporation ratio of [3H]-methylthymidine into the human cancer cells to the control ([2]; oligo 10 μM): 32.0%
incorporation ratio of [3H]-methylthymidine into the human cancer cells to the control ([2]; oligo 20 μM): 16.6%
inhibitory effect on growth of the human cancer cells, compared among oligos 1 to 5 ([3]; HeLa, 10 μM, over 4 days): highest inhibitory effect
concentration dependence of inhibition of growth of human cancer cells ([3]; HeLa, 2.5, 5, 10 and 20 μM): increased in proportion to the concentration
survival ratio of the cells to the control ([3]; HeLa, concentration series 2.5, 5, 10 and 20 μM (concentration of these values not given), Day 1): 44.4%
survival ratio of the cells to the control ([3]; HeLa, concentration series 2.5, 5, 10 and 20 μM (concentration of these values not given), Day 2): 45.1%
survival ratio of the cells to the control ([3]; HeLa, concentration series 2.5, 5, 10 and 20 μM (concentration of these values not given), Day 3): 55.5%
survival ratio of the cells to the control ([3]; HeLa, concentration series 2.5, 5, 10 and 20 μM (concentration of these values not given), Day 4): 63.8%
survival ratio of the cells to the control ([3]; HeLa, oligo 10 μM, 1% FCS, Day 1): 49.6%
survival ratio of the cells to the control ([3]; HeLa, oligo 10 μM, 1% FCS, Day 2): 62.7%
survival ratio of the cells to the control ([3]; HeLa, oligo 10 μM, 1% FCS, Day 3): 71.6%
survival ratio of the cells to the control ([3]; HeLa, oligo 10 μM, 1% FCS, Day 4): 71.1%
survival ratio of the cells (living vs dead cells, Giemsa staining) ([4]; 24 hours after addition): 30.8%
microscopic observation of cultured cells ([4]; about 18 hours after addition): a process of from shrinkage of cells to cell death was observed
